Assay results: patent US20240238274A1, “INHIBITORS OF UBIQUITIN SPECIFIC PEPTIDASE 22 (USP22) AND USES THEREOF FOR TREATING DISEASE AND DISORDERS” (Northwestern University, priority 2021, published 2024)

What was measured:
LLC1 lung carcinoma = experiment: LLC1 tumor model in WT mice; format: in vivo
Procedure: FIG. 6: Usp22 inhibitor administration enhances antitumor immunity. A, Structure of compound CS30 (Usp22i-S02). B, FOXP3 MFI in WT and 22KO of Treg cells after treatment with 20 mg/kg of Usp22i-S02 in vivo (n=3). C, Representative flow cytometry plot of FOXP3+CD25+ MFI of CD4+ peripheral cells of mice treated with 20 mg/kg of Usp22i-S02 relative to control (n=5). D, Graphical representation of Foxp3 MFI upon Usp22i-S02 administration (n=5). E, Tumor growth curve of LLC1 cells subcutaneously injected in the flank of WT mice with or without the addition of 20 mg/kg/time of the Usp22 inhibitor starting at day 15, in 100 μL of oil (n=4). F-G, Representative flow cytometry plot and graphical representation of % infiltration of CD4+ and CD8+ T cells within the tumor (n=4). H, Representative histogram plot and graphical representation of itTreg Foxp3 MFI (n=4). I, MFI of itTreg suppressive markers (n=3-4). J, Percent Foxp3+IFNg+ itTreg cells in control and Usp22-S02 treated mice (n=3-4). B, D-E, G, H-I Two-way ANOVA with multiple comparisons between rows was performed to determine statistical significance. J, Unpaired two tailed T test was performed to determine significance. All data are presented as mean±stdev. NS, not significant. *P<0.05, **P<0.01, ***P<0.001, ****P<0.0001.
FIG. 16: Usp22i-S02 has little effect on naïve mice, yet enhances anti-tumor immunity in LLC1-challenged mice. A, Body weight of Usp22i-S02 treated mice verses DMSO treated controls over the course of treatment (n=4). A-F. Injections were twice a day for 3 consecutive days at 10 mg/kg (n=4). B, Percent of cell populations in naïve mice treated with Usp22i-S02 relative to DMSO control (n=3-4). C, Percent of KI-67+ cells in various compartments in naïve mice treated with Usp22i-S02 relative to DMSO control (n=3-4). D, Percent CD44^hiCD62L^10 in T cell populations gated on CD45+ cells in naïve mice treated with Usp22i-S02 relative to DMSO control (n=3). E, Percent Annexin+PI+ T cells gates on CD45+ cells in naïve mice treated with Usp22i-S02 relative to DMSO control (n=4). […]

LLC1 cells = LLC1 cells in vitro: counts, viability, growth; format: cell-based
Procedure: FIG. 17: Usp22i-S02 inhibits tumor growth in vitro and in vivo. A, In vitro counts of LLC1 after treatment with Usp22i-S02 under various concentrations for 24 hours (n=2). B, In vitro viability of LLC1 after treatment with Usp22i-S02 under various concentrations for 24 hours (n=2). C, In vitro relative growth of LLC1 cells treated with 10 ug/ml of Usp22i-S02 relative to DMSO treated control for 7 days via OD600 (n=4). D, Growth curve of 1 million subcutaneously injected LLC1 cells into RAG−/− mice treated for 3 days Usp22i-S02 relative to DMSO control injections at day 15 of tumor growth (n=4). C-D, Two-way ANOVA with Sidaks's multiple comparisons between rows relative to control was performed to determine statistical significance. All data are presented as mean±stdev. NS, not significant. *P<0.05, **P<0.01, ***P<0.001, ****P<0.0001.
As Usp22 is also an important oncogene (43, 44), we were interested in the potential dual-therapeutic function of Usp22i-S02.

N#Cc1c2c(c(Nc3ccccc3)n3c1nc1ccccc13)CCCC2 [Chemical S02, 11-anilino-7,8,9,10-tetrahydro-benzimidazo [1,2-b] isoquinoline-6-carbonitrile]
intratumoral Foxp3+ Treg percentage (LLC1 lung carcinoma; LLC1 tumors, not splenic): significantly decreased
Teff cell tumor infiltration (LLC1 lung carcinoma; established LLC1 tumors): significant increase in Teff cell tumor infiltration
tumor rejection (LLC1 lung carcinoma; established LLC1 tumors, 20 mg/kg/time vs untreated): striking tumor rejection
tumor cell counts, viability and growth (LLC1 cells): decreased tumor cell counts, viability, and growth
